Experiments:
[1] = system: primary human dermal fibroblasts; test: Cytotoxicity (PrestoBlue) three days post transfection, Example 3; assay type: cell-based; conditions: addition of BAY11
Protocol: (§1) In this example, primary human dermal fibroblasts (ATCC PCS-201-012) are cultured according to ATCC instructions. Cells are nucleofected (Lonza Nucleofector®) with the following samples: • 1. mRNA encoding Gene Writer polypeptide targeting AAVS1+Gene Writer RNA template carrying a GFP reporter gene • 2. Condition (1) with genetically inactivated Gene Writer polypeptide • 3. Condition (1)+BAY 11-7082 • 4. Condition (1)+BAY 11-7082+IFN-beta
(§2) Gene Writing efficiency is measured from cultured cells 3 days after transfection by flow cytometry to assay the percentage of cells expressing GFP or by digital droplet PCR analysis with primers and probe on the junction between the template sequence and the targeted locus and on reference sequences as previously described (see PCT/US2019/048607). […] In some embodiments, the addition of BAY11 will increase one or both of the expression of the Gene Writer polypeptide, and the stability of the RNA template. In some embodiments, the addition of […] will also reduce cytotoxicity, e.g., cytotoxicity that is due to intracellular immune pathways.

human skin cells = conditions: cited from earlier work
[2] = system: primary human dermal fibroblasts; test: Gene Writing efficiency (GFP flow cytometry / ddPCR) with BAY 11-7082; assay type: cell-based; conditions: addition of BAY11
Protocol: as §1, §2

mouse liver = test: LNP-mediated delivery of firefly luciferase mRNA to the mouse liver (luciferase activity of liver homogenate); assay type: in vivo; conditions: C57BL/6 mice, i.v. 1 mg/kg, 6, 24, 48 hours, FIG. 2
Protocol: To measure the effectiveness of LNP-mediated delivery of firefly luciferase containing particles to the liver, LNPs were formulated and characterized as described in Example 9 and tested in vitro prior (Example 10) to administration to mice. C57BL/6 male mice (Charles River Labs) at approximately 8 weeks of age were dosed with LNPs via intravenous (i.v.) route at 1 mg/kg. Vehicle control animals were dosed i.v. with 300 μL phosphate buffered saline. Mice were injected via intraperitoneal route with dexamethasone at 5 mg/kg 30 minutes prior to injection of LNPs. Tissues were collected at necropsy at or 6, 24, 48 hours after LNP administration with a group size of 5 mice per time point. Liver and other tissue samples were collected, snap-frozen in liquid nitrogen, and stored at −80° C. until analysis.
Frozen liver samples were pulverized on dry ice and transferred to homogenization tubes containing lysing matrix D beads (MP Biomedical). Ice-cold 1×luciferase cell culture lysis reagent (CCLR) (Promega) was added to each tube and the samples were homogenized in a Fast Prep-24 5G Homogenizer (MP Biomedical) at 6 m/s for 40 seconds. The samples were transferred to a clean microcentrifuge tube and clarified by centrifugation. Prior to luciferase activity assay, the protein concentration of liver homogenates was determined for each sample using the Pierce™ BCA Protein Assay Kit (ThermoFisher Scientific) according to the manufacturer's instructions. Luciferase activity was measured with 200 μg (total protein) of liver homogenate using the luciferase assay reagent (Promega) according to manufacturer's instructions using an i3X SpectraMax plate reader (Molecular Devices). […] Reporter activity by the various formulations followed the ranking LIPIDV005>LIPIDV004>LIPIDV003. RNA expression was transient and enzyme levels returned near vehicle background by 48 hours. Post-administration. This assay validated the use of these ionizable lipids and their respective formulations for RNA systems for delivery to the liver.

In the case of `Cc1ccc(S(=O)(=O)/C=C/C#N)cc1` [BAY11, BAY 11-7082], the “Cytotoxicity due to intracellular immune pathways” value [1] is given as “reduce”, the “Expression of OCT4 from synthetic mRNA” value (human skin cells) is given as “improve” and the “Expression of the Gene Writer polypeptide and/or stability of the RNA template” value [2] is given as “increase”.
In the case of `CCCCC/C=C\C/C=C\CCCCCCCC(=O)OCC(COC(=O)CCC(OCCCCCCCC)OCCCCCCCC)COC(=O)OCCCN(CC)CC` (stereo not drawn) [LIPIDV003], the “Reporter (luciferase) activity in liver, ranking of formulations” value (shortened to “Reporter (luciferase) activity in liver”) (mouse liver) is reported as “LIPIDV005>LIPIDV004>LIPIDV003”.
With `CCCCCCCCCOC(=O)CCCCCCCN(CCO)CCCCCCCC(=O)OC(CCCCCCCC)CCCCCCCC` [LIPIDV004] the “Reporter (luciferase) activity in liver” value (mouse liver) was “LIPIDV005>LIPIDV004>LIPIDV003”.
For `CCCCCCCC(=O)N(CCCN(C)C)C(CCCCCCCCC(=O)OC(CCCCCC)CCCCCC)CCCCCCCCC(=O)OC(CCCCCC)CCCCCC` [LIPIDV005], the “Reporter (luciferase) activity in liver” value (mouse liver) was “LIPIDV005>LIPIDV004>LIPIDV003”.

Reference: patent US20230235358A1, “HOST DEFENSE SUPPRESSING METHODS AND COMPOSITIONS FOR MODULATING A GENOME” (FLAGSHIP PIONEERING INNOVATIONS VI, LLC, priority 2020, published 2023)
